Test results: PubChem BioAssay (NCI)
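Dose response: 5 concentrations. Exposure: 48 h. Format: 96-well plates. Endpoint: linear interpolation; highest concentration if not reached. The concentration for 50% growth inhibition is given as GI50. TGI: total growth inhibition.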

Assays:
Assay in all cases: DTP human tumour cell line panel, 48 h
[1] = test system: MDA-N
[2] = test system: RXF 393 renal
[3] = test system: OVCAR-3 ovarian
[4] = test system: 786-0 renal
[5] = test system: U251 CNS
[6] = test system: MOLT-4 leukemia

SMILES | TGI [1] | TGI [2] | TGI [3] | TGI [4] | TGI [5] | TGI [6] | GI50 [5] | GI50 [6] | GI50 [3]
N#Cc1c(O)c(/C=N/c2ncccn2)c(=O)n2c1[nH]c1ccccc12 | > 100 µM | > 100 µM | > 100 µM | > 100 µM | > 100 µM | > 100 µM | – | – | –
COc1cccc(C2c3cc4c(cc3OC(Nc3ccccc3)C2C)OCO4)c1OC (configuration not stated) | > 100 µM | > 100 µM | > 100 µM | 22.9 µM | > 100 µM | 17.9 µM | – | – | –
CC[C@@]1(O)C(=O)OCc2c1cc1n(c2=O)Cc2c-1nc1ccccc1c2/C=N/NC(=O)c1ccc(N)cc1 | > 37.6 µM | 0.22 µM | > 100 µM | 5.03 µM | 7.63 µM | 0.287 µM | – | – | –
COc1ccccc1C1c2cc3c(cc2OC(N2CCOCC2)C1C)OCO3 (configuration not stated) | 24.8 µM | – | 29.5 µM | 42.2 µM | – | 48.7 µM | – | – | –
CCOC(=O)c1c(NC(=S)Nc2ccccc2)sc2c1CCOC2 | > 100 µM | > 100 µM | > 100 µM | > 100 µM | > 100 µM | > 100 µM | – | – | –
NS(=O)(=O)c1ccc(/C=C/c2ccc(O)cc2)cc1 | > 100 µM | > 100 µM | 54.5 µM | 89.6 µM | > 100 µM | > 100 µM | 15 µM | 22.6 µM | –
COC(=O)CC1c2ccccc2N2C(=O)Cc3c([nH]c4ccccc34)C12 (configuration not stated) | > 100 µM | > 100 µM | > 100 µM | > 100 µM | > 100 µM | > 100 µM | – | – | –
O=C(CC(Cl)=C(Cl)Cl)c1ccccc1 | – | 63.8 µM | 81.4 µM | 48 µM | > 100 µM | 28.6 µM | – | – | –
COC(=O)CCC(NC(=O)OC(C)(C)C)C(=O)NC(Cc1ccc(NC(=O)CCCC(C)=O)cc1)C(=O)NC(CCC(=O)OC)C(=O)OC (configuration not stated) | > 100 µM | > 100 µM | > 100 µM | > 100 µM | – | > 100 µM | – | – | –
c1ccc([I+]c2ccccc2)cc1 | > 100 µM | > 100 µM | > 100 µM | > 100 µM | > 100 µM | > 100 µM | – | – | –
O=CN1CCN(C(=O)c2ccc(Cl)c(Cl)c2)C1=S | – | 35 µM | 28.3 µM | 17.6 µM | 28 µM | 53.8 µM | – | – | –
CC(C)Oc1c(-c2ccc(F)cc2)c(O)c2c3c1oc(=O)n3C=CC2C (configuration not stated) | 27.1 µM | 27.3 µM | 27.9 µM | 27.8 µM | 30.3 µM | 39.2 µM | – | – | –
CC(C)N(C(C)C)S(=O)(=O)C[C@]12CC[C@H](CC13OCC(CS(=O)(=O)c1ccccc1)O3)C2(C)C (some centres not stated) | > 100 µM | > 100 µM | > 70.8 µM | > 100 µM | > 100 µM | 45.7 µM | – | – | –
O=C(NNC(=O)c1csc(NC(=S)NC2CCCCC2)n1)c1ccccc1 | 31.1 µM | – | 16.4 µM | 31 µM | 20.4 µM | 44.9 µM | – | – | –
c1ccc2c(c1)OC(N1CCCC1)c1cnc(N3CCOCC3)nc1-2 (configuration not stated) | – | 60.4 µM | > 100 µM | > 100 µM | > 100 µM | > 100 µM | – | – | –
Cc1cnc2sn(-c3ccc(Br)cc3)c(=O)c2c1 | > 100 µM | – | 62.7 µM | > 100 µM | > 100 µM | > 100 µM | – | – | –

SMILES | TGI [1] | TGI [2] | TGI [3] | TGI [4] | TGI [5] | TGI [6] | GI50 [5] | GI50 [6] | GI50 [3]
CCOC(=O)C(Cl)(NC(=O)OCc1ccccc1)C(F)(F)F (configuration not stated) | > 100 µM | > 100 µM | > 100 µM | > 100 µM | > 100 µM | > 100 µM | – | – | –
CC1C(C#N)(C#N)C(C#N)=C(N)C1(Cl)[N+](=O)[O-] (configuration not stated) | 21.3 µM | 17.4 µM | 22 µM | 18.1 µM | 34.4 µM | 11.6 µM | – | – | –
CCOC1CC(C)N(C(=O)c2ccccc2)O1 (configuration not stated) | > 100 µM | > 100 µM | > 100 µM | > 100 µM | > 100 µM | > 100 µM | – | – | –
COc1ccc(NC(=S)c2ccoc2C)cc1CC(=O)OC(C)C | > 100 µM | – | > 100 µM | > 100 µM | > 100 µM | 80.4 µM | – | – | –
Cc1n(Cc2ccccc2)nc2sc(N)n[n+]12 | > 100 µM | > 100 µM | > 100 µM | > 100 µM | > 100 µM | > 100 µM | – | – | –
CC(Cl)CC(=O)OCC1CCCN2CCCCC12 (configuration not stated) | > 100 µM | > 100 µM | > 100 µM | > 100 µM | > 100 µM | > 100 µM | – | – | –
O=C(N/N=C(/COc1ccccc1)N=Cc1cccnc1)c1ccncc1 | > 100 µM | > 100 µM | > 100 µM | > 100 µM | > 100 µM | > 100 µM | – | – | –
Cc1cccc(N/C(Sc2ccccc2)=C(/C(Cl)=C(Cl)Cl)[N+](=O)[O-])c1 | 45.8 µM | – | 21.6 µM | 32.9 µM | 31.9 µM | > 100 µM | – | – | –
CC1=C(C)SC(=C2Sc3nc(O)[nH]c(=O)c3S2)S1 | – | > 100 µM | > 100 µM | > 100 µM | > 100 µM | > 100 µM | – | – | –
Cn1cc(-c2csc(-c3cn(C)c4ccccc34)n2)c2ccccc21 | > 100 µM | 54.4 µM | 64 µM | > 100 µM | > 100 µM | 42 µM | – | – | –
Cc1cnc2[nH]c(-c3ccc4ccccc4c3)cc(=O)c2c1 | – | – | 10.6 µM | > 100 µM | > 100 µM | > 100 µM | 0.464 µM | – | 0.352 µM
CC1(C)[C@@H]2C[C@H]1c1cnc(-c3ccccn3)cc1C2CCCCC[C@@H]1c2cc(-c3ccccn3)ncc2[C@@H]2C[C@H]1C2(C)C (some centres not stated) | 97.1 µM | 45.5 µM | > 100 µM | 11.5 µM | > 100 µM | > 100 µM | – | – | –
CN(C)c1ccc(C=C2C(=O)NC(=S)NC2=O)c2ccccc12 | > 100 µM | 76.4 µM | > 100 µM | > 100 µM | > 100 µM | > 100 µM | – | – | –
Cn1c(N)nc(-c2ccc(Cl)cc2)c1SSc1c(-c2ccc(Cl)cc2)nc(N)n1C | 3.34 µM | 5.47 µM | 3.54 µM | 3.43 µM | 4.19 µM | > 100 µM | – | – | –
Cc1ccc(C(=O)N/N=C(\N=Nc2ccc(C(=O)O)cc2)c2ccc(N(CCC#N)CCC#N)cc2C)cc1 | > 100 µM | > 100 µM | > 100 µM | > 100 µM | > 100 µM | > 100 µM | – | – | –
